According to article PMC12655351, “Synthesis and Anticancer Activity Evaluation of New 5-((5-Nitrofuran-2-yl)allylidene)-2-thioxo-4-thiazolidinones” (Pharmaceuticals, 2025):
Where “and” joins values, the source holds several entries; their conditions need not be identical. Equal entries are not always repeated. Where two headings read alike, the source gives them in different places.

Key:
MCF-7 cell line = experiment: Annexin V-FITC/propidium iodide flow cytometry; assay type: cell-based, human; conditions: 24 h
Description: The three chosen compounds, 2b, 12b, and 14b, were tested using Annexin V-FITC and propidium iodide to assess their effects on apoptosis induction on MCF-7 and MDA-MB-231 cell lines. To evaluate the population of cells, four states were determined: unstained cells (alive), cells stained with propidium iodide (necrotic), cells stained with FITC-labeled Annexin V (early apoptotic), and cells stained with both Annexin V and propidium iodide (late apoptotic). […] In a concentration of 5 μM the values were 8.5% and 12.2%, respectively. For 12b in a concentration equal to 1 μM, the obtained results showcased 7.2% of cells in early and late apoptosis and 0.7% in a state of necrosis. For 5 μM concentration results were 23.7% and 11.5%, respectively.
To conduct induction of apoptosis on MCF-7 and MDA-MB-231 cell lines, three compounds with the lowest IC50 values were selected (2b, 12b, 14b). The concentration of these compounds depended on the cell line. For MCF-7 cell line concentrations of 1 and 5 μM were used, while for MDA-MB-231 cell line concentrations were 5 and 10 μM. For both cell lines doxorubicin was used as a reference compound in 1 and 5 μM concentrations. This study was evaluated using a flow cytometer (BD FACSCanto II, Becton Dickinson Biosciences Systems, San Jose, CA, USA) and Annexin V binding Apoptosis Detection Kit II (BD Biosciences, San Diego, CA, USA). Cells were seeded in 6-well culture plates cultured in accordance with the previously described methodology. The medium was removed from wells and then cells were washed with PBS. A cell suspension was prepared in the binding buffer provided in the kit at a concentration of 1 × 10^6 cells/mL. A total of 100 µL of cell suspension was collected from each sample and transferred to the tubes. Afterwards, 5 µL of Annexin V-FITC and 4 µL of propidium iodide (PI) were added to each tube and then the tubes were incubated in the dark for 15 min at room temperature. After incubation, the suspension was supplemented to 300 µL with a binding buffer and immediately read in a BD FACSCanto II flow cytometer (Becton Dickinson Biosciences, San Jose, CA, USA), where 10,000 events per sample were measured. Results were analyzed using FACSDiva Software Version 6.1.3. (BD Biosciences Systems, San Jose, CA, USA).

ACHN = experiment: NCI-60 SRB screen; conditions: 48 h; for growth GP: 10 μM; for CC50: read-out: LC50, ACHN, 48 h
MDA-MB-435 = experiment: cells; conditions: Homo sapiens, MDA-MB-435, 48 h
[1] = test system: Non-small cell lung cancer; conditions: Non-small cell lung cancer subpanel
SF-295 = experiment: NCI-60 SRB screen; conditions: SF-295, 48 h; for CC50: read-out: LC50, SF-295, 48 h
IGROV1 = experiment: NCI-60 SRB screen; conditions: for CC50: read-out: LC50, IGROV1, 48 h
CNS cancer = CNS cancer subpanel
NCI-H522 = experiment: NCI-60 SRB screen; conditions: NCI-H522, 48 h
A498 = experiment: cells; conditions: Homo sapiens, A498, 48 h
PC-3 [2] = experiment: cells; conditions: Homo sapiens, PC-3, 48 h
BT-549 = experiment: cells; conditions: Homo sapiens, BT-549, 48 h
TK-10 = conditions: for TGI: TK-10, 48 h
KM12 = experiment: NCI-60 SRB screen; conditions: KM12, 48 h
OVCAR-8 = conditions: OVCAR-8, 48 h
NCI-H23 = conditions: for TGI: NCI-H23, 48 h
MALME-3M = experiment: NCI-60 SRB screen; conditions: 48 h
K-562 = conditions: K-562, 48 h
PC-3 [3] = conditions: PC-3, 48 h
SF-268 = experiment: cells; conditions: Homo sapiens, SF-268, 48 h
SK-OV-3 = experiment: cells; conditions: Homo sapiens, SK-OV-3, 48 h; for CC50: read-out: LC50, SK-OV-3, 48 h
U251 = experiment: NCI-60 SRB screen
[4] = Homo sapiens, U-251, 48 h, U251, 48 h
[5] = Homo sapiens, U-251, 48 h, read-out: LC50, U251, 48 h

CC(C(=O)O)N1C(=O)/C(=C/C=C/c2ccc([N+](=O)[O-])o2)SC1=S (centres unmarked) [2b, 2-((Z)-5-((E)-3-(5-Nitrofuran-2-yl)allylidene)-4-oxo-2-thioxothiazolidin-3-yl)propanoic acid]
cells in late and early apoptosis combined (MCF-7 cell line; MCF-7, 1 μM): 7.7% | necrotic cell population (MCF-7 cell line; MCF-7, 1 μM): 0.7% | cells in late and early apoptosis combined (MCF-7 cell line; MCF-7, 5 μM): 8.5% | necrotic cell population (MCF-7 cell line; MCF-7, 5 μM): 12.2%

O=C(O)CCN1C(=O)/C(=C/C=C/c2ccc([N+](=O)[O-])o2)SC1=S [12b, 3-((Z)-5-((E)-3-(5-Nitrofuran-2-yl)allylidene)-4-oxo-2-thioxothiazolidin-3-yl)propanoic acid]
growth GP (ACHN): -99.00% | TGI (ACHN): 2970 nM | GI50 (ACHN; Homo sapiens): 1610 nM | CC50 (ACHN; Homo sapiens): 5460 nM | GI50 (MDA-MB-435): 1160 nM | CC50 (MDA-MB-435; read-out: LC50, MDA-MB-435, 48 h): 5320 nM | MG_MID TGI [1]: 7750 nM | GI50 (SF-295; Homo sapiens): 2170 nM | CC50 (SF-295; Homo sapiens): 16300 nM | TGI (SF-295): 5210 nM | GI50 (IGROV1; Homo sapiens, IGROV-1, 48 h, IGROV1, 48 h): 1430 nM | CC50 (IGROV1; Homo sapiens, IGROV-1, 48 h): 5700 nM | TGI (IGROV1; IGROV1, 48 h): 2860 nM | MG_MID TGI (CNS cancer): 4090 nM | GI50 (NCI-H522; Homo sapiens): 1100 nM | CC50 (NCI-H522; Homo sapiens, read-out: LC50, NCI-H522, 48 h): 5520 nM | TGI (NCI-H522): 2460 nM | GI50 (A498): 14300 nM | GI50 (PC-3 [2]): 2480 nM | GI50 (BT-549): 1350 nM | CC50 (BT-549; read-out: LC50, BT-549, 48 h): 6130 nM | cells in late and early apoptosis combined (MCF-7 cell line; MCF-7, 1 μM): 7.2% | necrotic cell population (MCF-7 cell line; MCF-7, 1 μM): 0.7% | cells in late and early apoptosis combined (MCF-7 cell line; MCF-7, 5 μM): 23.7% | necrotic cell population (MCF-7 cell line; MCF-7, 5 μM): 11.5% | TGI (TK-10): 3810 nM | TGI (KM12): 3370 nM | TGI (OVCAR-8): 7110 nM | TGI (NCI-H23): 3370 nM | GI50 (MALME-3M; Homo sapiens, Malme-3M): 500 nM | CC50 (MALME-3M; Homo sapiens, Malme-3M, read-out: LC50, MALME-3M, 48 h): 4250 nM | TGI (MALME-3M; MALME-3M): 1660 nM | TGI (K-562): 2730 nM | TGI (PC-3 [3]): 10600 nM | GI50 (SF-268): 1440 nM | CC50 (SF-268; read-out: LC50, SF-268, 48 h): 7020 nM | TGI (CAKI-1; CAKI-1, 48 h): 2740 nM | GI50 (SK-OV-3): 4700 nM | CC50 (SK-OV-3): 43700 nM | GI50 (U251; [4]): 1070 nM | CC50 (U251; [5]): 5530 nM | TGI (U251; U251, 48 h): 2430 nM

O=C(O)CCCN1C(=O)/C(=C/C=C/c2ccc([N+](=O)[O-])o2)SC1=S [13b, 4-((Z)-5-((E)-3-(5-Nitrofuran-2-yl)allylidene)-4-oxo-2-thioxothiazolidin-3-yl)butanoic acid]
growth GP (ACHN): -100.00% | TGI (ACHN): 2210 nM and 1350 nM | CC50 (ACHN; Homo sapiens): 4700 nM | MG_MID TGI [1]: 4480 nM | CC50 (SF-295; Homo sapiens): 6310 nM | TGI (SF-295): 3240 nM and 2070 nM | CC50 (IGROV1; Homo sapiens, IGROV-1, 48 h): 5140 nM | MG_MID TGI (CNS cancer): 2090 nM | GI50 (A498): 4130 nM | GI50 (PC-3 [2]): 620 nM | growth GP (TK-10; TK-10, 10 μM, 48 h): -97.38% | TGI (TK-10): 3180 nM and 2030 nM | CC50 (TK-10; human, 48 h): 4770 nM | GI50 (OVCAR-8): 270 nM | TGI (OVCAR-8): 2250 nM and 1240 nM | growth GP (NCI-H23; NCI-H23, 10 μM, 48 h): -93.85% | TGI (NCI-H23): 3090 nM and 2040 nM | CC50 (NCI-H23; human, 48 h): 5700 nM | GI50 (MALME-3M; Homo sapiens, Malme-3M): 240 nM | GI50 (MALME-3M; MALME-3M): 150 nM | TGI (MALME-3M; MALME-3M): 600 nM and 350 nM | GI50 (K-562): 90 nM | TGI (K-562): > 100000 nM | GI50 (PC-3 [3]): 400 nM | TGI (PC-3 [3]): 3100 nM and 2020 nM | growth GP (CAKI-1; CAKI-1, 10 μM, 48 h): -96.66% | GI50 (CAKI-1; CAKI-1, 48 h): 770 nM | TGI (CAKI-1; CAKI-1, 48 h): 1970 nM and 2040 nM | GI50 (SK-OV-3): 2730 nM | CC50 (SK-OV-3): 28100 nM | GI50 (U251; [4]): 370 nM | CC50 (U251; [5]): 4230 nM | GI50 (U251; U251, 48 h): 190 nM | CC50 (U251; read-out: LC50, U251, 48 h): 3160 nM
